Entries after “also recorded” stand apart in the source; their conditions may differ.
Columns and labels:
Nlrp3 [1] = assay: IL-1β release into macrophage supernatants by ELISA; format: cell-based, mouse; conditions: for Effect of inhibitor on IL-1β secretion/release by all inducers tested: inducers alum, LLOMe, ATP, nigericin, 40 μM Boc-D-CMK or 100 μM CA-074-Me
Protocol: (§1) FIG. 1A-1B. Alum and LLOMe are poor inducers of inflammasome-associated cytokines. […] Macrophages were then exposed to increasing concentrations of alum, LLOMe, ATP, or nigericin for 4 hours, or alum for 6 hours, in the presence or absence of the 40 μM Boc-D-CMK or 100 μM CA-074-Me. IL-1β release was assessed by ELISA (A), and cell death was determined by CytotoxOne LDH activity assay (B) from supernatants. All PI measurements were taken in triplicate from representative experiment. FIG. 2. Alum and LLOMe cause depletion of caspase-1 and NLR-associated cytokines. […] Lysates were probed for pro-caspase-1, IL-18, and IL-1β, and supernatants were probed for IL-1β by immunoblotting. Data is representative of 3 experiments.
FIG. 6A-6D. LPS triggers strong production of Th1 and Th2-associated IgG subtypes. IgG1 (A) and IgG2c (B) production in C57BL/6 mice 3 weeks after subcutaneous challenge with increasing amounts of LPS. (C) A combination of LPS and ATP triggers a strong IL-1β response in vitro and in vivo. Primary C57BL/6 macrophages were treated with 250 ng/ml LPS or PBS for 2 hours, followed by to 5 mM ATP in the presence or absence of the 40 μM Boc-D-CMK. IL-1β release was assessed by ELISA from supernatants. […] IL-1β production in the intraperitoneal lavage was determined by ELISA 30 min after ATP/PBS challenge.
Cell death assays and ELISAs. Necrosis was assessed by two methods: LDH release assays and propidium iodide (PI) exclusion. […] Fluorescence was measured using a Victor 2 plate reader from Perkin Elmer. LDH release was determined using the CytotoxOne kit from Promega, according to the manufacturer's instructions. […] The enzymatic assay was developed until signal was obtained from a positive control (300 μM hydrogen peroxide) and the reaction was stopped and measured on a Victor 2 plate reader. IL-1β Ready-Set-Go ELISA kits were purchased from eBioscience and were performed according to manufacturer's recommendations. IL-1β concentration was determined at 1:1 and 1:10 to ensure linear range. […] ELISAs were read on a Victor 2 plate reader from Perkin Elmer. […]

[2] = tested on: BALB/c-derived macrophages; assay: Flow cytometry of lysosome and membrane integrity (LysoTracker and PI); format: cell-based, mouse
Protocol: (§2) FIG. 5A-5C. Lysosome rupture precedes cell death by alum and LLOMe, but not pyroptosis inducers. (A) Confocal microscopy of lysosome rupture in macrophages treated with […], 2.5 mM LLOMe, or 15 μM nigericin in the absence or presence of 100 μM CA-074-Me. The cells were stained with Hoechst (blue), 20 MW FITC-Dextran (green), CellMask Orange (red), TO-PRO-3 (white). 2D-fluorescent intensity plots of FITC-dextran staining of representative cells derived from alum, LLOMe, and nigericin-treated cells. Flow cytometry analysis of LLOMe and LT-treated cells. BALB/c-derived macrophages were exposed to 2.5 mM LLOMe (B) or 500 ng/ml LT (C) and lysosome and membrane integrity were measured using LysoTracker and PI at different time points using flow cytometry.
To quantify these findings, lysosomal integrity was also analyzed by flow cytometry with the lysosomal pH-indicator LysoTracker and the vital stain propidium iodide (FIG. 5B and C). […] Intriguingly, protein degradation was concurrent with a loss of lysosome integrity 30 to 45 min after LLOMe exposure, and 4-6 hours after alum exposure (FIGS. 5A and 5B).

macrophages = assay: Confocal microscopy of lysosome rupture (fluorescent dextran) and plasma membrane integrity; format: cell-based, mouse
Protocol: as §2
Cathepsin-dependent lysosome rupture correlates with degradation of inflammatory proteins. […] Lysosome-disrupting agents caused caspase-1-independent cell death and broad protein degradation, while pyroptosis inducers caused caspase-1-dependent cell death and targeted IL-1β secretion. In order to directly investigate the role of lysosome rupture in Nlrp3 activation, two complementary methods were used to analyze lysosome integrity in macrophages challenged with both lysosome-destabilizing agents and potassium-efflux inducers. First, lysosomal integrity was measured by labeling vesicles in the endolysosomal pathway with fluorescent dextran. […] Intriguingly, no plasma membrane impairment (indicative of necrotic cell death) was detectable at this time point, but was observed only 6 hours post alum exposure (FIG. 5A). […] LLOMe destabilized lysosomes within 30 min, without impairment of plasma membranes. A loss of plasma membrane integrity was observed only after 60 min of LLOMe exposure, resulting in dextran release from these cells (FIG. 5A).

Nlrp3 [3] = assay: IL-1β and LDH in intraperitoneal lavage after i.p. challenge; format: in vivo, mouse; conditions: C57BL/6 mice, agent injected intraperitoneally (LPS: high concentrations), no ATP
Protocol: (§3) FIG. 6A-6D. LPS triggers strong production of Th1 and Th2-associated IgG subtypes. IgG1 (A) and IgG2c (B) production in C57BL/6 mice 3 weeks after subcutaneous challenge with increasing amounts of LPS. (C) A combination of LPS and ATP triggers a strong IL-1β response in vitro and in vivo. Primary C57BL/6 macrophages were treated with 250 ng/ml LPS or PBS for 2 hours, followed by to 5 mM ATP in the presence or absence of the 40 μM Boc-D-CMK. IL-1β release was assessed by ELISA from supernatants. (D) C57BL/6 mice were i.p. primed with 1 ug LPS or PBS for 2 hours, followed by i.p. challenge with 100 mM ATP or PBS. IL-1β production in the intraperitoneal lavage was determined by ELISA 30 min after ATP/PBS challenge.
FIG. 11. Similar in vitro and in vivo profiles of LLOMe and LPS/ATP-treated macrophages. C57BL/6 mice were i.p. primed with 1 μg LPS or PBS for 2 hours, followed by i.p. challenge with 500 μl of PBS containing 100 mM ATP, 2 mM LLOMe, or PBS only. IL-1β production and LDH activity was determined from the intraperitoneal lavage by ELISA 30 min after challenge.
Prototypical Nlrp3 inducers trigger a strong IL-1β in vivo and production of Th1-specific antibodies in vivo. While the substantial difference in Nlrp3-signalling in vitro is shown, it was further chosen to investigate the ability of lysosome-disrupting agents and pyroptosis inducer to activate Nlrp3 in vivo. […]

C57BL/6 macrophages [4] = assay: 2D-DIGE of the cellular proteome of treated macrophages; format: cell-based, mouse; conditions: LPS-primed; 2.5 mM LLOMe or nigericin for 90 minutes
Source text: FIG. 10. 2D-DIGE gel of proteins isolated from untreated, nigericin- and LLOMe-treated macrophages. […] Protein lysates from control, nigericin, and LLOMe treated cells were isolated, and subsequently labeled with Cy2, Cy3 and Cy5, respectively, and separated on a 2D-DIGE gel.
Broad protein degradation mediated by LLOMe—As lysosomal proteases are highly promiscuous, it was reasoned that alum- and LL-mediated lysosomal release of proteolytic proteins may not just degrade Nlrp3-associated proteins, but may also trigger degradation of a broad range of cytosolic proteins, and might go beyond the degradation of inflammatory proteins reported here. To examine effects of LLOMe on the cellular proteome, macrophages were challenged with these compounds and generated lysates. 2D-DIGE was used to determine the extent of damage inflicted in macrophages exposed to the lysosome-disrupting agent, LLOMe. […] These findings further highlight the different impact of lysosome-destabilizing agents and pyroptosis inducers on the cellular proteome on a macro-level.

[5] = tested on: pro-caspase-1, IL-18, and IL-1β; format: cell-based, mouse
C57BL/6 mice = assay: IgG1 and IgG2c production after immunization of mice; format: in vivo, mouse; conditions: immunized C57BL/6 mice; LPS 3 weeks after subcutaneous challenge
Protocol: as §3
It was sought to determine if this difference correlated with the observed difference in in vivo IL-1β activation. To test this hypothesis, C57BL/6 mice were immunized with alum, LLOMe, and LPS.

[6] = tested on: bone marrow-derived murine macrophages; assay: Necrotic cell death (LDH release / propidium iodide exclusion) in macrophages; format: cell-based, mouse
Protocol: as §1
Cell death assays and ELISAs. Necrosis was assessed by two methods: LDH release assays and propidium iodide (PI) exclusion. PI exclusion assays were performed in a 96-well flat-bottom plate using phenol-red-free DMEM and added to wells to a final concentration 30 μM 10-min before the specified time point. Fluorescence was measured using a Victor 2 plate reader from Perkin Elmer. LDH release was determined using the CytotoxOne kit from Promega, according to the manufacturer's instructions. […] The enzymatic assay was developed until signal was obtained from a positive control (300 μM hydrogen peroxide) and the reaction was stopped and measured on a Victor 2 plate reader. IL-1β Ready-Set-Go ELISA kits were purchased from eBioscience and were performed according to manufacturer's recommendations. IL-1β concentration was determined at 1:1 and 1:10 to ensure linear range. […] ELISAs were read on a Victor 2 plate reader from Perkin Elmer.
Lysosome-disrupting agents induce potent cell death but poor IL-1β release. […] Towards this, bone marrow-derived murine macrophages were challenged with both lysosome disrupting and pyroptosis-inducing agents and measured the amount of IL-1β and LDH released into the supernatant as complementary read-outs for Nlrp3 activation. […]

C57BL/6 macrophages [7] = assay: Increasing CA-074-Me concentrations in LLOMe- or nigericin-challenged macrophages (PI exclusion, immunoblot); format: cell-based, mouse
[8] = LPS-primed macrophages, 40 μM Boc-D-CMK, LDH assay

COC(=O)[C@H](CC(C)C)NC(=O)[C@@H](N)CC(C)C [LLOMe, Leu-Leu-OMe]
IL-1β release (Nlrp3 [1]; LPS-primed (250 ng/ml, 2 hours) murine macrophages challenged with the inducer, ELISA of supernatants): only minimal | Time to complete loss of lysosome integrity ([2]; 2.5 mM LLOMe, LysoTracker): ≤ 30 min | Time at which necrotic cell death was observed ([2]; 2.5 mM LLOMe, PI): 60 to 90 min | Time of protein degradation concurrent with loss of lysosome integrity ([2]; after LLOMe exposure): 30 to 45 min | Time at which loss of plasma membrane integrity was observed (macrophages; 2.5 mM LLOMe): 60 min | Time to destabilized lysosomes, without impairment of plasma membranes (macrophages; 2.5 mM LLOMe): ≤ 30 min | IL-1β release in vivo (Nlrp3 [3]): poor release | LDH release in vivo (Nlrp3 [3]): significant release | Degradation of cellular proteins (2D-DIGE) (C57BL/6 macrophages [4]): broad degradation | Cellular pro-caspase-1 levels [5]: significant depletion | Cytosolic levels of IL-18 and IL-1β [5]: dramatic decrease | Mature caspase-1 (p20) indicative of caspase-1 activation [5]: No mature caspase-1 (p20) | Processing of pro-caspase-1 (p45) into p10 and p20 [5]: substantial depletion of p45 without generating the p20 or p10 subunits | Release of mature IL-1β into the supernatant (immunoblot) [5]: no mature IL-1β | IgG1 / Th2 response (C57BL/6 mice): polarized IgG1 | IgG2c response (Th1) (C57BL/6 mice): little induction

Boc-D-CMK
Effect of inhibitor on alum and LLOMe-induced necrotic cell death [6, 8]: no impact | Effect of inhibitor on cell death mediated by ATP and nigericin [6, 8]: prevented | Effect of inhibitor on IL-1β secretion/release by all inducers tested (Nlrp3 [1]): blocked

CO[C@@H]1C[C@@H](C[C@H]2CC[C@H](C)[C@H]([C@@H](C)C(=O)O)O2)O[C@]2(O[C@](C)([C@H]3CC[C@@](C)([C@@H]4O[C@@H]([C@H]5O[C@@](O)(CO)[C@H](C)C[C@@H]5C)C[C@@H]4C)O3)C[C@H]2C)[C@@H]1C [nigericin, Nigericin]
Timing of lysosome impairment relative to cell death (macrophages; nigericin-treated cells (FIG. 5A)): occurred only after cell death induction | Caspase-1 activation and Nlrp3 signaling: mature IL-1β in the supernatant (C57BL/6 macrophages [7]; LPS-primed C57BL/6 macrophages (FIG. 4B)): triggered caspase-1 activation and Nlrp3 signaling | Degradation of cellular proteins (2D-DIGE) (C57BL/6 macrophages [4]): did not trigger any apparent degradation | Processing of pro-caspase-1 (p45) into p10 and p20 [5]: minimal decrease of p45 with a notable increase of p20 or p10

CCCNC(=O)[C@H]1O[C@@H]1C(=O)N[C@H](C(=O)N1CCC[C@H]1C(=O)OC)[C@@H](C)CC [CA-074-Me]
Effect of inhibitor on necrotic cell death mediated by all agents/inducers tested ([6]; alum, LLOMe, ATP, nigericin, 100 μM CA-074-Me): blocked necrosis | Effect of inhibitor on IL-1β secretion/release by all inducers tested (Nlrp3 [1]): blocked | Effect of inhibitor on lysosomal release of dextran from alum and LLOMe-treated macrophages (macrophages; 100 μM CA-074-Me): blocked | Effect of increasing inhibitor concentrations on cell death and drop in inflammatory proteins in LLOMe-treated macrophages (C57BL/6 macrophages [7]; 2.5 mM LLOMe, LPS-primed): blocked both, cell death and the drop in inflammatory proteins | Effect of inhibitor (at concentrations that blocked cell death) on release of processed IL-1β by Nlrp3 inducers (C57BL/6 macrophages [7]; nigericin (and ATP), LPS-primed): prevented the release of processed IL-1β | Effect of inhibitor on alum and LLOMe-mediated drop/degradation of proinflammatory proteins [5]: prevented the drop; also recorded: blocked

— patent publication US20140037685A1 (priority 2012, published 2014)
